According to patent US20240124418A1 (BioTheryX, Inc., priority 2020, published 2024):

Tested on: TNF-α
Assay: Cell-based TNF-α inhibition assay (LPS-induced PBMCs, Meso Scale)
Settings: PBMC, PBMCs pretreated 1 h, LPS 100 ng/mL 18-24 h, percentage of stimulated DMSO control; for inhibition at 0.1 µM: compound concentration 0.1 μM; for inhibition at 1 µM: compound concentration 1 μM
Description: Example B1. Cell-Based TNF-α Inhibition Assay
Frozen primary blood mononuclear cells (PBMCs) were quick thawed, washed once with RPMI 1640 media supplemented with 10% fetal bovine serum, 1% penicillin, and 1% streptomycin, and plated in a 96 well plate at 200,000 cells per well. The cells were pretreated with DMSO only as a control or a compound for 1 h, and then induced with LPS (lipopolysaccharide) (100 ng/mL) for 18-24 h. The supernatant was analyzed for TNF-α using the Meso Scale assay. Compound activity was determined as a percentage of the stimulated DMSO control. The results are summarized in Table 1, where A represents a percent inhibition value ≥60%; B represents a percent inhibition value <60% and ≥40%; C represents a percent inhibition value <40% and ≥20%; and D represents a single percent inhibition value <20%.

| SMILES | inhibition at 0.1 µM | inhibition at 1 µM |
| --- | --- | --- |
| CCOc1cc([C@@H](CS(C)(=O)=O)N2C(=O)c3cccc(OCCCCCCCCCNCc4ccc(OCc5scc6c5CN(C5CCC(=O)NC5=O)C6=O)cc4)c3C2=O)ccc1OC (stereo partly drawn) [Compound A50, 4-[(9-{[(4-{[5-(2,6-Dioxopiperidin-3-yl)-4-oxo-4H,5H,6H-thieno[3,4-c]pyrrol-1-yl]methoxy}phenyl)methyl]amino}nonyl)oxy]-2-[(1S)-1-(3-ethoxy-4-methoxyphenyl)-2-methane-sulfonylethyl]-2,3-dihydro-1H-isoindole-1,3-dione] | ≥ 60% | ≥ 60% |
| CCOc1cc([C@@H](CS(C)(=O)=O)N2C(=O)c3cccc(NC(=O)CCCCCN4CCN(CC(=O)Nc5cccc(C6CCC(=O)NC6=O)c5)CC4)c3C2=O)ccc1OC (stereo partly drawn) [Compound A87, 6-[4-({[3-(2,6-Dioxopiperidin-3-yl)phenyl]carbamoyl}methyl)piperazin-1-yl]-N-{2-[(1S)-1-(3-ethoxy-4-methoxyphenyl)-2-methanesulfonylethyl]-1,3-dioxo-2,3-dihydro-1H-isoindol-4-yl}hexanamide] | ≥ 60% | ≥ 60% |
| CCOc1cc([C@@H](CS(C)(=O)=O)N2C(=O)c3cccc(CCCCCCCCCCC(=O)N[C@H](C(=O)N4C[C@H](O)C[C@H]4C(=O)NCc4ccc(-c5scnc5C)cc4)C(C)(C)C)c3C2=O)ccc1OC [Compound A62, (2S,4R)-1-[(2S)-2-(11-{2-[(1S)-1-(3-Ethoxy-4-methoxyphenyl)-2-methanesulfonylethyl]-1,3-dioxo-2,3-dihydro-1H-isoindol-4-yl}undecanamido)-3,3-dimethylbutanoyl]-4-hydroxy-N-{[4-(4-methyl-1,3-thiazol-5-yl)phenyl]methyl}pyrrolidine-2-carboxamide] | ≥ 60% | ≥ 60% |
| CCOc1cc([C@@H](CS(C)(=O)=O)N2C(=O)c3cccc(NC(=O)CCCCNCc4ccc(OCc5scc6c5CN(C5CCC(=O)NC5=O)C6=O)cc4)c3C2=O)ccc1OC (stereo partly drawn) [Compound A39, 5-((4-((5-(2,6-Dioxopiperidin-3-yl)-4-oxo-5,6-dihydro-4H-thieno[3,4-c]pyrrol-1-yl)methoxy)benzyl)amino)-N-(2-((S)-1-(3-ethoxy-4-methoxyphenyl)-2-(methylsulfonyl)ethyl)-1,3-dioxoisoindolin-4-yl)pentanamide] | ≥ 60% | – |
| CCOc1cc([C@@H](CS(C)(=O)=O)N2C(=O)c3cccc(NC(=O)CCCCCCNCc4ccc(OCc5scc6c5CN([C@H]5CCC(=O)NC5=O)C6=O)cc4)c3C2=O)ccc1OC [Compound A38, 7-((4-((5-((S)-2,6-Dioxopiperidin-3-yl)-4-oxo-5,6-dihydro-4H-thieno[3,4-c]pyrrol-1-yl)methoxy)benzyl)amino)-N-(2-((S)-1-(3-ethoxy-4-methoxyphenyl)-2-(methylsulfonyl)ethyl)-1,3-dioxoisoindolin-4-yl)heptanamide] | ≥ 60% | – |
| CCOc1cc([C@@H](CS(C)(=O)=O)N2C(=O)c3cccc(NC(=O)CCCCCCCN4CCN(CC(=O)Nc5ccc(C6CCC(=O)NC6=O)cc5)CC4)c3C2=O)ccc1OC (stereo partly drawn) [Compound A84, 8-[4-({[4-(2,6-Dioxopiperidin-3-yl)phenyl]carbamoyl}methyl)piperazin-1-yl]-N-{2-[(1S)-1-(3-ethoxy-4-methoxyphenyl)-2-methanesulfonylethyl]-1,3-dioxo-2,3-dihydro-1H-isoindol-4-yl}octanamide] | ≥ 60% | ≥ 60% |
| CCOc1cc([C@@H](CS(C)(=O)=O)N2C(=O)c3cccc(NC(=O)CCCCCCCCCN4CCN(CC(=O)Nc5ccc6c(C7CCC(=O)NC7=O)nn(C)c6c5)CC4)c3C2=O)ccc1OC (stereo partly drawn) [Compound A79, 10-[4-({[3-(2,6-Dioxopiperidin-3-yl)-1-methyl-1H-indazol-6-yl]carbamoyl}-methyl)piperazin-1-yl]-N-{2-[(1S)-1-(3-ethoxy-4-methoxyphenyl)-2-methanesulfonylethyl]-1,3-dioxo-2,3-dihydro-1H-isoindol-4-yl}decanamide] | ≥ 60% | ≥ 60% |
